The source of these data is patent publication US4005084A, “Thienylmethyl phenoxy morpholine compounds” (Yoshitomi Pharmaceutical Industries, Ltd., priority 1975, dated 1977).

One test concerns gastric secretion. Put plainly: Inhibitory activity on gastric secretion in rats. Format: in vivo, Wistar rats (male). To be noted: Rattus norvegicus, sc, read-out: Inhibitory activity on gastric secretion, ED50. Here is the method:
After fasting for 48 hours, the stomach of male Wistar rats weighing about 200 g were ligated at the pylorus under light ether anesthesia as described by Shay et al. in the Gastroenterology, vol. 5, pp. 43-61 (1945). Immediately after this ligation, test compound was given subcutaneously. Four hours later, the gastric juice in the stomach was collected and centrifuged for each rat and expressed as ml per 100 g of body weight.
The ED50 was calculated in the same manner as Test (I) on Shay ulcer.

For another test, the system named is gastric motility. Kind of test: Inhibitory activity on gastric motility under stress in rats. Conditions: Rattus norvegicus, read-out: Inhibitory activity on gastric motility, ED50. It counts as in vivo, Wistar rats (male). The protocol: The procedure described by K. Watanabe in the Chemical & Pharmaceutical Bulletin, vol.
Male Wistar rats weighing about 250 g were used. After fasting for 18 hours, rats were fixed on their backs by the limbs with thread on boads and immersed into water to the depth of the xiphoid cartilage. Temperature of water was kept at 22° C.
Pressure change in small rubber balloon fixed in the grandular stomach was recorded with pressure transducer (Nihon Koden Kogyo Co., Ltd., MP-4T). The balloon was inserted from the forestomach under light ether anesthesia. Initial pressure was kept at the height of 10 mmHg.
When the effect of anesthesia and of the operation diminished, test compound was administered into the stomach through the polyethylene tube which was previously inserted into the stomach with the balloon.

Test [1] has as its target T1, acetylcholine (contracting action of the guinea pig intestine) (Cavia porcellus).
T1 construct: contracting action of the guinea pig intestine; from tissue; host or cells: guinea pig intestine
Put plainly: Acetylcholine antagonistic activity on contraction of guinea pig intestine. To be noted: negative log10 of molar concentration reducing effect of a double dose of acetylcholine to that of a single dose, read-out: Acetylcholine antagonistic activity, pA2 (converted). Here is the method:
Acetylcholine antagonistic activity was tested according to the method described by J. M. Van Rossum et al. in the Archives Internationales de Pharmacodynamie et de Therapie, vol. 143, pp. 240-246 and pp. 299-330 (1963). The pA2 is the negative of the logarithm, to the base 10, of the molar concentration of the test compound which reduced the effect of a double dose of acetylcholine on contracting action of the guinea pig intestine compared with that of a single dose.

Another test has as its system Shay ulcer. Put plainly: Inhibitory activity on Shay ulcer in rats. It counts as in vivo, Wistar rats (female). Conditions: Rattus norvegicus, sc, read-out: Inhibitory activity on Shay ulcer, ED50. Here is the method:
Female Wistar rats (140-180 g) were fasted for 44 hours but allowed free access to ater after which the pylorus was ligated as described by Shay et al. in the Gastroenterology, vol. […] Immediately after this ligation, test compound was given subcutaneously. Ten hours later, the animals were sacrificed by an overdose of ether, the stomach was removed and examined for lesions. The logarithm of the sum of each damaged area per rat was referred to as the ulcer index.
The Per Cent Inhibition was calculated as follows: [formula]
The ED50 was read from the semilogarithmic graph on which the Per Cent Inhibition was plotted vs. mg/kg dose.

Like-named read-outs stand apart in the source and are kept apart here.

T1 sequence (H0W1Z3 1-590): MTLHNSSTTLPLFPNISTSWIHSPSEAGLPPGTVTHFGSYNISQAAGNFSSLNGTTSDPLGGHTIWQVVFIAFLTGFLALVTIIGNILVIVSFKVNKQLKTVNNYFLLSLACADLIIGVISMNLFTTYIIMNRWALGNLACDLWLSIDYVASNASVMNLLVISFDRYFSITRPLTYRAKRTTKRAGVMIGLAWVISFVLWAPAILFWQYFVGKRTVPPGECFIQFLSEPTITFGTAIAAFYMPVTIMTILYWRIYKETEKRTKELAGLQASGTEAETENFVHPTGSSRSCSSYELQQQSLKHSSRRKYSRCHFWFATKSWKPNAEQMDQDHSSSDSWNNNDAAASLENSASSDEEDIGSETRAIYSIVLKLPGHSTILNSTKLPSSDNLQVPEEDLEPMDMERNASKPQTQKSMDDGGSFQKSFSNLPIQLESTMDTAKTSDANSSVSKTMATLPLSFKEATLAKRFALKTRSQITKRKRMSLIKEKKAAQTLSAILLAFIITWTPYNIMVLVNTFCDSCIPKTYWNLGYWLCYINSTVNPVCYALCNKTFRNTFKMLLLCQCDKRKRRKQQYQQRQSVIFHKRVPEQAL

Consider `O=C(O)/C=C\C(=O)O.c1csc(Cc2ccccc2OCC2CNCCO2)c1` (stereo not shown) [Compound A, 2-[2-(2-thenyl)phenoxymethyl]morpholine maleate], for which the 50% effective dose (ED50) (commonly the dose at which the effect has come halfway, by size or by number of responders) was 4.5 mg/kg in the test with gastric secretion (subcutaneous, immediately after pylorus ligation, gastric juice collected 4 hours later); 2.1 mg/kg in the test on gastric motility (administered into the stomach, stress by water immersion at 22° C); 5.5 mg/kg with Shay ulcer (subcutaneous, immediately after pylorus ligation, examined 10 hours later). Also, in test [1], the Kb was 6.31 µM.
`CN1[C@@H]2CC[C@H]1C[C@@H](OC(=O)C(CO)c1ccccc1)C2` (stereo partly shown) [Atropine, reference compound]: the 50% effective dose (ED50) in the test on gastric secretion (4 h) was 0.12 mg/kg; in the test with gastric motility, at most 3 mg/kg; in the test on Shay ulcer (10 h), 0.5 mg/kg.
